Where “and” joins values, the source holds several entries; their conditions need not be identical. Identical values can stand only once. Inconclusive results and toxic doses are left out. Rule as the data show it: active = T/C of 150% or more; inactive = T/C below 125%.
Test system: L1210 leukemia ip in BDF1 mice, survival T/C
Assay: NCI In Vivo Anticancer Drug Screen. Data for tumor model L1210 Leukemia (intraperitoneal) in B6D2F1 (BDF1) mice
Settings: endpoint: mean survival time, higher = longer survival
Summary of the method: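 Survival endpoint. Drug-treated group vs vehicle group, expressed as T divided by C. Tumor passaged by transplantation.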

[1] = dose: 100.0 mg/kg/injection, schedule: Q01DX009 (ip), vehicle: Klucel (hydroxypropylcellulose) (HPC)
[2] = dose: 200.0 mg/kg/injection, schedule: Q01DX009 (ip), vehicle: Klucel (hydroxypropylcellulose) (HPC)
[3] = dose: 400.0 mg/kg/injection, schedule: Q01DX009 (ip), vehicle: Klucel (hydroxypropylcellulose) (HPC)
[4] = dose: 50.0 mg/kg/injection, schedule: Q01DX001 (ip), vehicle: saline
[5] = dose: 100.0 mg/kg/injection, schedule: Q01DX001 (ip), vehicle: saline
[6] = dose: 200.0 mg/kg/injection, schedule: Q01DX001 (ip), vehicle: saline
[7] = dose: 100.0 mg/kg/injection, schedule: Q04DX003 (ip), vehicle: Klucel (hydroxypropylcellulose) (HPC)
[8] = dose: 200.0 mg/kg/injection, schedule: Q04DX003 (ip), vehicle: Klucel (hydroxypropylcellulose) (HPC)
[9] = dose: 400.0 mg/kg/injection, schedule: Q01DX001 (ip), vehicle: saline
[10] = dose: 100.0 mg/kg/injection, schedule: Q01DX009 (ip), vehicle: saline
[11] = dose: 100.0 mg/kg/injection, schedule: Q04DX003 (ip), vehicle: saline
[12] = dose: 200.0 mg/kg/injection, schedule: Q01DX009 (ip), vehicle: saline
[13] = dose: 200.0 mg/kg/injection, schedule: Q04DX003 (ip), vehicle: saline
[14] = dose: 400.0 mg/kg/injection, schedule: Q01DX009 (ip), vehicle: saline
[15] = dose: 50.0 mg/kg/injection, schedule: Q01DX009 (ip), vehicle: Klucel (hydroxypropylcellulose) (HPC)
[16] = dose: 100.0 mg/kg/injection, schedule: Q04DX002 (ip), vehicle: Klucel (hydroxypropylcellulose) (HPC)

Measured: T/C

CSc1ccc(NC(=O)Nc2ccc([N+](=O)[O-])cc2C)cc1
inactive: dose: 100.0 mg/kg/injection, schedule: Q04DX002 (ip), vehicle: saline with Tween-80 98 % of control | dose: 200.0 mg/kg/injection, schedule: Q04DX002 (ip), vehicle: saline with Tween-80 95 % of control | dose: 400.0 mg/kg/injection, schedule: Q04DX002 (ip), vehicle: saline with Tween-80 91 % of control

O=C(Nc1ccccc1F)N(CCO)C1CCCCC1
inactive: [1] 101 % of control | [2] 106 % of control | [3] 101 % of control

COc1ccc(N(CCO)CCO)cc1
inactive: [4] 96 % of control | [5] 102 % of control | [6] 96 % of control

S=C([S][Sn]([c]1ccccc1)([c]1ccccc1)[c]1ccccc1)N1CCCCC1
inactive: [7] 100 % of control | [8] 94 % of control | dose: 400.0 mg/kg/injection, schedule: Q04DX003 (ip), vehicle: Klucel (hydroxypropylcellulose) (HPC) 94 % of control

ClC1(Cl)Cc2ccccc21
inactive: dose: 100.0 mg/kg/injection, schedule: Q01DX009 (ip), vehicle: saline with Tween-80 97 % of control | dose: 177.0 mg/kg/injection, schedule: Q04DX003 (ip), vehicle: saline with Tween-80 98 % of control | dose: 200.0 mg/kg/injection, schedule: Q01DX009 (ip), vehicle: saline with Tween-80 96 % of control | dose: 200.0 mg/kg/injection, schedule: Q04DX003 (ip), vehicle: saline with Tween-80 101 % of control | dose: 266.0 mg/kg/injection, schedule: Q04DX003 (ip), vehicle: saline with Tween-80 98 % of control | dose: 400.0 mg/kg/injection, schedule: Q01DX009 (ip), vehicle: saline with Tween-80 96 % of control | dose: 400.0 mg/kg/injection, schedule: Q04DX003 (ip), vehicle: saline with Tween-80 98 % of control | dose: 600.0 mg/kg/injection, schedule: Q04DX003 (ip), vehicle: saline with Tween-80 110 % of control

COCCOC(N)=O
inactive: [5] 105 % of control | [6] 115 % of control | [9] 95 % of control

COc1ccccc1[P+](CO)(c1ccccc1OC)c1ccccc1OC
inactive: [10] 97 % of control | [11] 103 % of control | [12] 92 % of control | [13] 97 % of control | [14] 93 % of control | dose: 400.0 mg/kg/injection, schedule: Q04DX003 (ip), vehicle: saline 97 % of control

CC12CCCC(O)(CC(=O)C1)C2 (stereo not given)
inactive: [10] 93 % of control | dose: 100.0 mg/kg/injection, schedule: Q04DX003 (ip), vehicle: acetone 95 % of control | [12] 95 % of control | dose: 200.0 mg/kg/injection, schedule: Q04DX003 (ip), vehicle: acetone 101 % of control | [14] 91 % of control | dose: 400.0 mg/kg/injection, schedule: Q04DX003 (ip), vehicle: acetone 98 % of control

COc1cccc(CC(=O)C(=O)O)c1
inactive: [15] 98 % of control | [1] 90 % of control | [7] 97 % of control | [2] 95 % of control | [8] 98 % of control

COc1ccc(/C=C2\N=C(c3ccccc3)OC2=O)c(Cl)c1OC
inactive: [4] 97 % of control | [5] 97 % of control | [6] 100 % of control | [9] 94 % of control

CC1C/C=C2\CSC(NC(=O)/C3=C\N(C/C=C/C=C/C(O)CC(O)CC(=O)N3)C2=O)C(=O)O1 (stereo not given)
inactive: dose: 10.6 mg/kg/injection, schedule: Q01DX Z (ip), vehicle: saline 100 % of control | dose: 16.0 mg/kg/injection, schedule: Q01DX Z (ip), vehicle: saline 106 % of control | dose: 24.0 mg/kg/injection, schedule: Q01DX Z (ip), vehicle: saline 106 % of control | dose: 36.0 mg/kg/injection, schedule: Q01DX Z (ip), vehicle: saline 103 % of control | dose: 100.0 mg/kg/injection, schedule: Q01DX001 (ip), vehicle: carboxymethylcellulose (CMC) 110 % of control | dose: 200.0 mg/kg/injection, schedule: Q01DX001 (ip), vehicle: carboxymethylcellulose (CMC) 94 % of control | dose: 400.0 mg/kg/injection, schedule: Q01DX001 (ip), vehicle: carboxymethylcellulose (CMC) 97 % of control

NC(=S)N/N=C(\c1ccccc1)c1cccc2ccccc12
inactive: dose: 25.0 mg/kg/injection, schedule: Q01DX009 (ip), vehicle: Klucel (hydroxypropylcellulose) (HPC) 91 % of control | [15] 91 % of control | [16] 93 % of control

Cc1ccnc(NS(=O)(=O)c2ccc(N=Nc3ccc(N)nc3N)cc2)n1
inactive: [5] 100 % of control | [6] 102 % of control | [9] 100 % of control

CC(=O)OC1CCC2CCCCC2/C1=N\O (stereo not given)
inactive: dose: 50.0 mg/kg/injection, schedule: Q04DX003 (ip), vehicle: saline 112 % of control | [11] 95 % of control | [13] 97 % of control

C/C(=C\c1ccccc1)C(=O)c1ccccc1
inactive: dose: 6.25 mg/kg/injection, schedule: Q01DX009 (ip), vehicle: water 109 % of control | dose: 12.5 mg/kg/injection, schedule: Q01DX009 (ip), vehicle: water 107 % of control | dose: 25.0 mg/kg/injection, schedule: Q01DX009 (ip), vehicle: water 101 % of control and 91 % of control | dose: 50.0 mg/kg/injection, schedule: Q01DX009 (ip), vehicle: water 95 % of control and 112 % of control | [1] 93 % of control | dose: 100.0 mg/kg/injection, schedule: Q01DX009 (ip), vehicle: other 113 % of control | dose: 100.0 mg/kg/injection, schedule: Q01DX009 (ip), vehicle: water 101 % of control and 106 % of control | [16] 100 % of control | dose: 100.0 mg/kg/injection, schedule: Q04DX003 (ip), vehicle: other 101 % of control | [2] 98 % of control | dose: 200.0 mg/kg/injection, schedule: Q01DX009 (ip), vehicle: other 101 % of control | dose: 200.0 mg/kg/injection, schedule: Q01DX009 (ip), vehicle: water 104 % of control and 107 % of control | dose: 200.0 mg/kg/injection, schedule: Q04DX002 (ip), vehicle: Klucel (hydroxypropylcellulose) (HPC) 92 % of control | dose: 200.0 mg/kg/injection, schedule: Q04DX003 (ip), vehicle: other 101 % of control | [3] 105 % of control | dose: 400.0 mg/kg/injection, schedule: Q01DX009 (ip), vehicle: other 108 % of control | dose: 400.0 mg/kg/injection, schedule: Q01DX009 (ip), vehicle: water 106 % of control | dose: 400.0 mg/kg/injection, schedule: Q04DX002 (ip), vehicle: Klucel (hydroxypropylcellulose) (HPC) 95 % of control | dose: 400.0 mg/kg/injection, schedule: Q04DX003 (ip), vehicle: other 100 % of control

O=P(Cc1ccccc1)(Oc1ccccc1)Oc1ccccc1
inactive: [1] 91 % of control | [2] 94 % of control | [3] 91 % of control

C=CC(=C)OC
inactive: dose: 25.0 mg/kg/injection, schedule: Q01DX005 (ip), vehicle: saline 117 % of control | dose: 50.0 mg/kg/injection, schedule: Q01DX005 (ip), vehicle: saline 113 % of control | dose: 100.0 mg/kg/injection, schedule: Q01DX005 (ip), vehicle: saline 111 % of control | dose: 200.0 mg/kg/injection, schedule: Q01DX005 (ip), vehicle: saline 107 % of control | dose: 400.0 mg/kg/injection, schedule: Q01DX005 (ip), vehicle: saline 111 % of control

C#CCCCCCl
inactive: dose: 100.0 mg/kg/injection, schedule: Q01DX001 (ip), vehicle: other 103 % of control | dose: 200.0 mg/kg/injection, schedule: Q01DX001 (ip), vehicle: other 104 % of control | dose: 400.0 mg/kg/injection, schedule: Q01DX001 (ip), vehicle: other 108 % of control

Source: PubChem BioAssay AID248 (DTP/NCI, 2004)
